Measured values taken from the NIST ThermoML archive (doi:10.1021/je200373q).

Experiment: xn = mol fraction of the nth substance listed
Conditions: 101 kPa, Liquid, Vibrating tube method

CCCCCCCCC [nonane] + CCCCCCCC
mass density [kg/m3]
Conditions	x2 = 0.1017	x2 = 0.2023	x2 = 0.3016	x2 = 0.4	x2 = 0.4987	x2 = 0.6006	x2 = 0.7002	x2 = 0.7986	x2 = 0.8989
273.15 K	731.51	730.03	728.78	727.43	725.78	724.52	722.97	721.5	719.99
278.15 K	727.69	726.2	724.94	723.57	721.91	720.65	719.08	717.59	716.07
283.15 K	723.84	722.35	721.07	719.7	718.01	716.75	715.16	713.66	712.12
288.15 K	719.99	718.48	717.19	715.8	714.11	712.83	711.22	709.71	708.16
293.15 K	716.12	714.6	713.29	711.9	710.18	708.9	707.27	705.75	704.18
298.15 K	712.24	710.7	709.38	707.97	706.24	704.95	703.31	701.76	700.18
303.15 K	708.34	706.79	705.46	704.03	702.28	700.97	699.32	697.75	696.15
308.15 K	704.41	702.86	701.51	700.07	698.3	696.98	695.31	693.73	692.11
313.15 K	700.48	698.9	697.54	696.08	694.3	692.97	691.28	689.68	688.04
318.15 K	696.52	694.93	693.55	692.08	690.27	688.92	687.22	685.6	683.95
323.15 K	692.53	690.93	689.53	688.05	686.22	684.87	683.14	681.5	679.83
328.15 K	688.53	686.91	685.49	683.99	682.15	680.78	679.03	677.37	675.69
333.15 K	684.5	682.86	681.43	679.91	678.05	676.66	674.89	673.22	671.51
338.15 K	680.44	678.78	677.34	675.8	673.91	672.5	670.73	669.03	667.3
343.15 K	676.36	674.68	673.22	671.66	669.75	668.33	666.53	664.81	663.06
348.15 K	672.25	670.55	669.07	667.5	665.56	664.12	662.3	660.56	658.78
353.15 K	668.11	666.39	664.88	663.29	661.33	659.87	658.02	656.27	654.47
358.15 K	663.93	662.18	660.67	659.05	657.07	655.6	653.72	651.94	650.1
363.15 K	659.72	657.95	656.41	654.78	652.77	651.27	649.36	647.56	645.72
